From US8575158B2, “1-phenyl-substituted heterocyclyl derivatives and their use as prostaglandin D2 receptor modulators” (Actelion Pharmaceuticals Ltd., priority 2010, dated 2013)
pIC50: −log10 of the molar value.

Molecular target: T1, hCRTH2 receptor (Homo sapiens, UniProt Q9Y5Y4)
T1 construct: expressed in transfected cells; host or cells: HEK293
T1 sequence (Q9Y5Y4 1-395): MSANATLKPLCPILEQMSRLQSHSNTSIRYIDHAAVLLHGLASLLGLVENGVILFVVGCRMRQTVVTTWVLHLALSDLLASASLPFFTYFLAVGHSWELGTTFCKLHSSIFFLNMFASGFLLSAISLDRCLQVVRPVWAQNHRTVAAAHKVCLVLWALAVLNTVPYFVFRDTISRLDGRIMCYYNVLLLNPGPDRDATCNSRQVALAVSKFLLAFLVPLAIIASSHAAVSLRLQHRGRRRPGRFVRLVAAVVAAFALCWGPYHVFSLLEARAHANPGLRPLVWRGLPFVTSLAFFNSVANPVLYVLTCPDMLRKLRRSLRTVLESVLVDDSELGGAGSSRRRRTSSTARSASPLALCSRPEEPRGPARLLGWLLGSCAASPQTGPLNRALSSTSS
Test: Radioligand displacement assay (3H-PGD2) on hCRTH2 receptor membranes
Type: binding
Details: antagonistic activity

[1] = 3H-PGD2 radioligand displacement, HEK293-hCRTH2 membranes
[2] = 3H-PGD2 displacement on HEK293-hCRTH2 membrane fragments

pIC50 [1] | pIC50 [2] | SMILES
8.22 |  | Cc1nn(CCC(=O)N2Cc3ccccc3C2c2cc(Cl)ccc2OCC(=O)O)c2ccccc12 (single isomer, unassigned) [Example 533, (4-Chloro-2-{2-[3-(3-methyl-indazol-1-yl)-propionyl]-2,3-dihydro-1H-isoindol-1-yl}-phenoxy)-acetic acid]
7.89 |  | O=C(O)COc1ccc(Cl)cc1C1c2ccccc2CN1C(=O)CCn1ncc2ccc(F)cc21 (single isomer, unassigned) [Example 534, (4-Chloro-2-{2-[3-(6-fluoro-indazol-1-yl)-propionyl]-2,3-dihydro-1H-isoindol-1-yl}-phenoxy)-acetic acid]
7.82 |  | O=C(O)COc1ccc(Cl)cc1C1c2ccccc2CN1C(=O)CCn1ncc2c(F)cccc21 (single isomer, unassigned) [Example 535, (4-Chloro-2-{2-[3-(4-fluoro-indazol-1-yl)-propionyl]-2,3-dihydro-1H-isoindol-1-yl}-phenoxy)-acetic acid]
6.96 |  | O=C(O)COc1ccc(Cl)cc1C1c2ccccc2CN1C(=O)CCn1ncc2cccc(Cl)c21 (single isomer, unassigned) [Example 536]
7.59 |  | O=C(O)COc1ccc(Cl)cc1C1c2ccccc2CN1C(=O)CCn1ncc2cccc(F)c21 (single isomer, unassigned) [Example 537, (4-Chloro-2-{2-[3-(7-fluoro-indazol-1-yl)-propionyl]-2,3-dihydro-1H-isoindol-1-yl}-phenoxy)-acetic acid]
6.15 |  | Cc1nn(CCC(=O)N2Cc3ccccc3C2c2cc(Cl)ccc2OCC(=O)O)c2cccc(F)c12 (single isomer, unassigned) [Example 538, (4-Chloro-2-{2-[3-(4-fluoro-3-methyl-indazol-1-yl)-propionyl]-2,3-dihydro-1H-isoindol-1-yl}-phenoxy)-acetic acid]
6.63 |  | Cc1nn(CCC(=O)N2Cc3ccccc3C2c2cc(Cl)ccc2OCC(=O)O)c2cccc(Cl)c12 (single isomer, unassigned) [Example 539]
6.20 |  | Cc1nn(CCC(=O)N2Cc3ccccc3C2c2cc(Cl)ccc2OCC(=O)O)c2c(F)cccc12 (single isomer, unassigned) [Example 540]
6.06 |  | Cc1nn(CCC(=O)N2Cc3ccccc3C2c2cc(Cl)ccc2OCC(=O)O)c2cc(F)ccc12 (single isomer, unassigned) [Example 541, (4-Chloro-2-{2-[3-(6-fluoro-3-methyl-indazol-1-yl)-propionyl]-2,3-dihydro-1H-isoindol-1-yl}-phenoxy)-acetic acid]
6.06 |  | Cc1nn(CCC(=O)N2Cc3ccccc3C2c2cc(Cl)ccc2OCC(=O)O)c2cc(Cl)ccc12 (single isomer, unassigned) [Example 542, (4-Chloro-2-{2-[3-(6-chloro-3-methyl-indazol-1-yl)-propionyl]-2,3-dihydro-1H-isoindol-1-yl}-phenoxy)-acetic acid]
6.45 |  | O=C(O)COc1ccc(Cl)cc1C1c2ccccc2CN1C(=O)CCn1ncc2cc(F)ccc21 (single isomer, unassigned) [Example 543, (4-Chloro-2-{2-[3-(5-fluoro-indazol-1-yl)-propionyl]-2,3-dihydro-1H-isoindol-1-yl}-phenoxy)-acetic acid]
6.01 |  | Cc1nn(CCC(=O)N2Cc3ccccc3C2c2cc(Cl)ccc2OCC(=O)O)c2ccccc12 (single isomer, unassigned) [Example 545, (4-Chloro-2-{2-[3-(3-methyl-indazol-1-yl)-propionyl]-2,3-dihydro-1H-isoindol-1-yl}-phenoxy)-acetic acid]
6.68 |  | O=C(O)COc1ccc(Cl)cc1C1c2ccccc2CN1C(=O)CCn1ncc2ccc(F)cc21 (single isomer, unassigned) [Example 546, (4-Chloro-2-{2-[3-(6-fluoro-indazol-1-yl)-propionyl]-2,3-dihydro-1H-isoindol-1-yl}-phenoxy)-acetic acid]
6.57 |  | O=C(O)COc1ccc(Cl)cc1C1c2ccccc2CN1C(=O)CCn1ncc2c(F)cccc21 (single isomer, unassigned) [Example 547, (4-Chloro-2-{2-[3-(4-fluoro-indazol-1-yl)-propionyl]-2,3-dihydro-1H-isoindol-1-yl}-phenoxy)-acetic acid]
6.15 |  | O=C(O)COc1ccc(Cl)cc1C1c2ccccc2CN1C(=O)CCn1ncc2cccc(Cl)c21 (single isomer, unassigned) [Example 548]
6.53 |  | O=C(O)COc1ccc(Cl)cc1C1c2ccccc2CN1C(=O)CCn1ncc2cccc(F)c21 (single isomer, unassigned) [Example 551, (4-Chloro-2-{2-[3-(7-fluoro-indazol-1-yl)-propionyl]-2,3-dihydro-1H-isoindol-1-yl}-phenoxy)-acetic acid]
 | 6.58 | O=C(O)COc1ccc(Cl)cc1C1c2ccccc2CCN1C(=O)[C@@H]1C[C@H]1c1cccc(Cl)c1 (single isomer, unassigned; diastereoisomer 1) [Example 151, (±)-(4-Chloro-2-{2-[(trans)-2-(3-chloro-phenyl)-cyclopropanecarbonyl]-1,2,3,4-tetrahydro-isoquinolin-1-yl}-phenoxy)-acetic acid (diastereoisomer 1)]
 | 7.48 | O=C(O)COc1ccc(Cl)cc1C1c2ccccc2CCN1C(=O)[C@@H]1C[C@H]1c1cccc(Cl)c1 (single isomer, unassigned; diastereoisomer 2) [Example 152, (±)-(4-Chloro-2-{2-[(trans)-2-(3-chloro-phenyl)-cyclopropanecarbonyl]-1,2,3,4-tetrahydro-isoquinolin-1-yl}-phenoxy)-acetic acid (diastereoisomer 2)]
 | 6.30 | C[C@H](Oc1ccc(F)cc1C1c2ccccc2CCN1C(=O)OCc1ccccc1)C(=O)O (stereo partly drawn) [Example 2, 1-[2-((S)-1-Carboxy-ethoxy)-5-fluoro-phenyl]-3,4-dihydro-1H-isoquinoline-2-carboxylic acid benzyl ester]
 | 7.40 | C[C@@H](Oc1ccc(F)cc1C1c2ccccc2CCN1C(=O)OCc1ccccc1)C(=O)O (stereo partly drawn) [Example 8, 1-[2-((R)-1-Carboxy-ethoxy)-5-fluoro-phenyl]-3,4-dihydro-1H-isoquinoline-2-carboxylic acid benzyl ester]
 | 7.96 | C[C@@H](Oc1ccc(C#N)cc1C1c2ccccc2CCN1C(=O)OCc1ccccc1)C(=O)O (stereo partly drawn) [Example 13, 1-[2-((R)-1-Carboxy-ethoxy)-5-cyano-phenyl]-3,4-dihydro-1H-isoquinoline-2-carboxylic acid benzyl ester]
 | 8.60 | N#Cc1ccc(OCC(=O)O)c([C@@H]2c3ccccc3CCN2C(=O)OCc2ccccc2)c1 [Example 25, (S)-1-(2-Carboxymethoxy-5-cyano-phenyl)-3,4-dihydro-1H-isoquinoline-2-carboxylic acid benzyl ester]
 | 8.34 | O=C(O)COc1ccc(Cl)cc1[C@@H]1c2ccccc2CCN1C(=O)OCc1ccccc1 [Example 26, (S)-1-(2-Carboxymethoxy-5-chloro-phenyl)-3,4-dihydro-1H-isoquinoline-2-carboxylic acid benzyl ester]
 | 7.92 | C[C@@H](Oc1ccc(F)cc1[C@@H]1c2ccccc2CCN1C(=O)OCc1ccccc1)C(=O)O [Example 27, (S)-1-[2-((R)-1-Carboxy-ethoxy)-5-fluoro-phenyl]-3,4-dihydro-1H-isoquinoline-2-carboxylic acid benzyl ester]
